Test results published in publication PMC10785800, “Molecular Basis for Inhibition of Heparanases and β-Glucuronidases by Siastatin B” (Journal of the American Chemical Society, 2023).
Read-outs that look alike come from different tables or passages of the source.

Key:
[1] = target: T1, E. coli β-glucuronidase (EcGusB) (Escherichia coli, UniProt P05804); assay: Inhibition of EcGusB hydrolysis of 4-methylumbelliferyl glucuronide (MU-GlcUA); format: biochemical; settings: for Ki: fluorogenic substrate MU-GlcUA, McIllvane buffer pH 5.0, competitive inhibition model
T1 construct: made in house; host or cells: E. coli BL21 Gold (DE3)
Source text: (§1) To assess the potency of the synthesized 1-N-iminosugars, we first turned to the exo-acting β-glucuronidases AcGH79 and EcGusB, whose activity can be readily monitored with the use of the fluorogenic substrate 4-methylumbelliferyl glucuronide (MU-GlcUA). As these β-glucuronidases belong to different families–AcGH79 to the GH79 family and EcGusB to the GH2 family[46]—assessing inhibition with these enzymes also gives some insights into the applicability of these molecules. All four synthesized compounds (8–11) are able to inhibit both enzymes (see Table 1, Figures S5 and S6).
(§2) Figure S6. Inhibition kinetics of EcGusB treated with synthetic inhibitors. The inhibition constants for EcGusB treated with A) 11, B) 9, C) 10, and D) 8 were determined. Michaelis-Menten saturation curves were determined in the presence of various concentration of inhibitor (left panel). These curves were fit to a hyperbolic equation, resulting in a Michaelis constant (KM). The KM values were then plotted against the inhibitor concentration (right panel). A linear fit of this plot was then used to determine the inhibition constant (KI).
(§3) (1 picture or pasted object on this page, not shown here)
(§4) Initial rates were determined for AcGH79 and EcGusB hydrolysis of 4-methylumbelliferyl glucuronide in the presence of varying concentrations either commercial or HPLC purified siastatin B to determine inhibitory IC50 concentrations. Reactions contained 20 mM NaCl, 1 % BSA, 60 mM McIllvane Buffer pH 5.0 and 500 µM 4-methylumbelliferyl glucuronide and 0 – 400 µM siastatin B. Assays were initiated by the addition of enzyme to a final concentration of 2 nM. Fluorescence was monitored using a Clariostar plate reader using an excitation wavelength of 365 nm and emission wavelength of 450 nm.
(§5) Assays were performed in quadruplicate and the variation of initial rates with inhibitor concentration […]
(§6) were fit to the Hill equation: with the software program Origin 2019. A=Amax( kn+ [I]n) To determine inhibition constant (Ki) values, Michaelis-Menten parameters were determined for AcGH79 and EcGusB hydrolysis of 4-methylumbelliferyl glucuronide in reactions containing one of the inhibitors 8, 9, 10 or 11. Assays were initiated by the addition of enzyme to the assay mix containing 0-1 mM 4-methylumbelliferyl glucuronide, 20 mM NaCl, 0.1 % BSA, 60 mM McIllvane Buffer pH
(§7) 5.0. Fluorescence was monitored as above. Michaelis constants were determined for at least 3 different inhibitor concentrations for each different inhibitor. Inhibition constants were calculated according to a competitive inhibition model for both inhibitors using the equation : . All K= K(1+ [I]) […]
(§8) kinetic parameters were fit with the software program Origin 2019. […]
(§9) The Journal of Organic Chemistry 2005, 70, 5207-5214.
(§10) Nat Struct Mol Biol 2015, 22 (12), 1016-1022.
(§11) (7) Winter, G. xia2: an expert system for macromolecular crystallography data reduction. Journal of […]

[2] = target: T2, Acidobacterium capsulatum β-glucuronidase (AcGH79) (Acidobacterium capsulatum, UniProt C1F2K5); assay: Inhibition of AcGH79 hydrolysis of 4-methylumbelliferyl glucuronide (MU-GlcUA); format: biochemical
T2 sequence (C1F2K5 1-475): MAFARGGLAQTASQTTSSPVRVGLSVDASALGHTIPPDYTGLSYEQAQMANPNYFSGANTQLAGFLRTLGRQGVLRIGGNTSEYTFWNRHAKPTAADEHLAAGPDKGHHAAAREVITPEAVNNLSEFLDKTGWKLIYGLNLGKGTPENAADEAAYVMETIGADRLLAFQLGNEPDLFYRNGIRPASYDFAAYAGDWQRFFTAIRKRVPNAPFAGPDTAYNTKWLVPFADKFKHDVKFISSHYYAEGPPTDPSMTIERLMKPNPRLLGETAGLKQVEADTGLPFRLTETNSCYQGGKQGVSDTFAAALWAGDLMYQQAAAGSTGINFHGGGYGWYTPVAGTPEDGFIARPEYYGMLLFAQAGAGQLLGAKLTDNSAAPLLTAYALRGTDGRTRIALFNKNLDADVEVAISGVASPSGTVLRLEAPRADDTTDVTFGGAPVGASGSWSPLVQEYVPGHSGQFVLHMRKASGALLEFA
Source text: as §1
as §2, with “S5.” for “S6.”, “AcGH79” for “EcGusB”
as §4, §5, §6, §7, §8, §9, §10, §11

human heparanase (HPSE) = target: T3, human heparanase (HPSE) (Homo sapiens, UniProt Q9Y251); assay: Competitive activity-based protein profiling (cABPP) of HPSE in platelet lysate; format: biochemical; settings: cABPP with ABP VB-A69 100 nM, pH 5.0, 1 h preincubation at 37°C
T3 construct: endogenous in cells; host or cells: human platelets (lysate)
T3 sequence (Q9Y251 36-543): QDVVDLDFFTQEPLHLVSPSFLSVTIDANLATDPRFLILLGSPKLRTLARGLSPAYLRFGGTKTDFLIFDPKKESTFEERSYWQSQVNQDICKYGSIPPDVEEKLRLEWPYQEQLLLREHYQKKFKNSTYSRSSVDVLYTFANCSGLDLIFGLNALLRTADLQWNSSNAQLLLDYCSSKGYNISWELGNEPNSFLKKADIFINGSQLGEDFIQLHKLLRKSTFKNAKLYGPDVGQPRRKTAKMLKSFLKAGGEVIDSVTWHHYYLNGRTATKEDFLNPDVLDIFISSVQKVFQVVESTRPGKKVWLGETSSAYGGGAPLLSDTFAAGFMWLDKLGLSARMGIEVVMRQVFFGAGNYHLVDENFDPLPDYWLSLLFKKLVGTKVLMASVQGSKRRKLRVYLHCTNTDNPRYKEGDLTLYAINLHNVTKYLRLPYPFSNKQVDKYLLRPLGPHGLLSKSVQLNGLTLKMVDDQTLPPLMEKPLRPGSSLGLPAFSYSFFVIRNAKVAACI
Source text: (§12) We next examined whether the synthetic 1-N-iminosugars could inhibit HPSE and human β-glucuronidase. To assess the potency of these inhibitors, we used a competitive activity-based protein profiling (cABPP) assay, that measures the ability of the inhibitor to reduce fluorescent labeling of an enzyme by a fluorescent pan-β-glucuronidase activity-based probe (ABP).[16],[34] Using this cABPP assay, we can simultaneously monitor the inhibition of HPSE and GUSB that are both present in platelet lysates.[6],[29] […] The IC50’s determined for HPSE were greater than that observed for GUSB, which is anticipated for monomer-like inhibitors acting on multisubsite endo-acting enzymes. […] However, the trend that inhibition was improved with the removal of the 3-geminal diol was maintained for both GUSB and HPSE.
(§13) Figure 3 Competitive ABPP of platelet lysate with synthetic iminosugars. Iminosugars 8–11 inhibit both GusB and HPSE present in human platelet lysate. Quantitated fluorescence plots used to determine IC50 values are available in Figure S7. Full length gel images and replicates are available in Figure S8, and Coomassie stained gels are available in Figure S9.
(§14) Figure S7. Inhibition of HPSE and GusB in human platelet lysates by inhibitors 8, 9, 10 and 11. A […]
(§15) normalized quantitated band intensities for HPSE against inhibitor concentration. […]
(§16) Xray diffraction data were collected at 100 K at beamlines i03, i04 and i04-1 of the Diamond Light Source UK. Reflections were autoprocessed using the XIA2 pipeline7. Complexes were solved by directly refining against their unliganded structures where solved using molecular replacement with PHASER4 (search model PDB accessions 5E98 (HPSE), 3VNY (AcGH79), 3K46 (EcGUSB)). Solved […]
(§17) refinement using COOT8 and REFMAC59 respectively. Ligand coordinates were built using jLigand10.
(§18) Diagrams were generated using PyMOL (Delano Scientific). cABPP Labelling experiments:
(§19) ABP labelling reactions were carried out in McIlvaine buffer (pH 5.0), 300 mM NaCl. Labeling reactions were initiated by the addition of ABP VB-A69 to a final concentration of 100 nM, before incubation for 30 min at 37°C with shaking. Following labeling, samples were denatured by boiling with Laemmli buffer for 5 min and resolved by SDS-PAGE. […]
(§20) For competitive ABPP (cABPP) experiments, platelet lysates were preincubated with inhibitor (or buffer only control) in McIlvaine buffer (pH 5.0), 300 mM NaCl for 1 h at 37°C with shaking. […] For quantitative measurements, fluorescently labeled the band intensities were calculated using Imagequant (Cytiva), and normalized to the corresponding band in the inhibitor free control lane. IC50 concentrations were determined by fitting data to the Hill equation: […]

[3] = target: T4, human β-glucuronidase (HsGUSB) (Homo sapiens, UniProt P08236); assay: Competitive activity-based protein profiling (cABPP) of GUSB in platelet lysate; format: biochemical; settings: cABPP with ABP VB-A69 100 nM, pH 5.0, 1 h preincubation at 37°C
T4 construct: endogenous in cells; host or cells: human platelets (lysate)
T4 sequence (P08236 23-651): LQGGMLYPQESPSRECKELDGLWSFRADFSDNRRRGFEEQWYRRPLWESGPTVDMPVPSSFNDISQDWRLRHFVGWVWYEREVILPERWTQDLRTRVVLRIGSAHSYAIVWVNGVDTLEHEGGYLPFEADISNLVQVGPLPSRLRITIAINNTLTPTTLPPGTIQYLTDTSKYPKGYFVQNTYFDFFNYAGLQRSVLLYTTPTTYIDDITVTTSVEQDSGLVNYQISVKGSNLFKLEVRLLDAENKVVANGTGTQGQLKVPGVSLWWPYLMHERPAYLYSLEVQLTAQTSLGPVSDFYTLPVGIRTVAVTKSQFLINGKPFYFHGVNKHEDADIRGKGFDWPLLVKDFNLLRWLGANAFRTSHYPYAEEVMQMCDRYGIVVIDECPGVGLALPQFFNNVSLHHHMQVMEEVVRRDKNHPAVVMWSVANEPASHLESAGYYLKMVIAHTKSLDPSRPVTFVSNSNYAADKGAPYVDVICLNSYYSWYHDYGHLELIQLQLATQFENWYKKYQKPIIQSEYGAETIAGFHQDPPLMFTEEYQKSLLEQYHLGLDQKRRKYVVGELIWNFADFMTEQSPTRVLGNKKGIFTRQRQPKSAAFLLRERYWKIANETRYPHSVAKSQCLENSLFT
Source text: as §12, §13, §14, §15, §16, §17, §18, §19, §20

[4] = Stability of siastatin B by 1H NMR; format: physicochemical
Protocol: To determine how siastatin B inhibits β-glucuronidases, we first sought to determine whether inhibition was due to the presence of contaminants from either the commercial material or degradation products resulting from prolonged incubation in an aqueous solution or in the presence of a β-glucuronidase.
Supplemental Figures and Tables
Figure S1. Stability of siastatin B. A) 1H NMR experiment showing siastatin B (2 mg) in D2O phosphate buffer (50 mM, 300 mM NaCl, pH 5.0), taken for two different time points (t=0 min and after 18 h). B) Prolonged incubation of siastatin B with recombinant human heparanase. 1H NMR spectra were taken before and after prolonged incubation with 1.2 µM of recombinant human heparanase. The x-axis of […]
as §3

[5] = fluorogenic substrate MU-GlcUA, McIllvane buffer pH 5.0, competitive inhibition model, read-out: AcGH79 Ki
[6] = 500 µM MU-GlcUA, 0–400 µM siastatin B, pH 5.0

T1 sequence (P05804 whole entry): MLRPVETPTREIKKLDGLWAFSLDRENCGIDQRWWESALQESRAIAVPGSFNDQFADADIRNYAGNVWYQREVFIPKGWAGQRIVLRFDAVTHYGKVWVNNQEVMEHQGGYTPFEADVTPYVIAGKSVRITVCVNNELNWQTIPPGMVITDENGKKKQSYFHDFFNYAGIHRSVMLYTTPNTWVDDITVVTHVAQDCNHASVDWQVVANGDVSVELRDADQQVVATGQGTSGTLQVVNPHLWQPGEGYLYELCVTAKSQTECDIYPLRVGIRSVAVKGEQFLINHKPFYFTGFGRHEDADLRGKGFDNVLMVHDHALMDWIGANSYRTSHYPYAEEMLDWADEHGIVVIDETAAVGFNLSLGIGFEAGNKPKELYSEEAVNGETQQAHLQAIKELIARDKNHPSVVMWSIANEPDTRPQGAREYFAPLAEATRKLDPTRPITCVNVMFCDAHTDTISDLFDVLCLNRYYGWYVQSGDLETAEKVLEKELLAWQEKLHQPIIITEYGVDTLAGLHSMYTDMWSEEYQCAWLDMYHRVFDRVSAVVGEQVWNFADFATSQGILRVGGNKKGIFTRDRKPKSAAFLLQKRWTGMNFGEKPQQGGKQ

Row | Structure (SMILES) | Ki [1] | Ki [2, 5] | IC50 (human heparanase (HPSE)) | IC50 [3] | inhibition of EcGusB by HPLC-purified material compared with commercial siastatin B [1, 6] | inhibition of AcGH79 by HPLC-purified material compared with commercial siastatin B [2, 6] | stability in aqueous buffer (NMR) ([4]; D2O phosphate buffer 50 mM, 300 mM NaCl, pH 5.0, 18 h) | stability on prolonged incubation with recombinant human heparanase (1H NMR) ([4]; heparanase 1.2 μM) | Ki ([2]; MU-GlcUA substrate, read-out: inhibition constant for AcGH79)
1 | O=C(O)[C@H]1CNC[C@@H](O)[C@H]1O [compound 10, galacturonic acid isofagomine] | 23 ± 3 µM | 1.5 ± 0.4 µM | 8 ± 1 µM | 0.7 ± 0.04 µM |  |  |  |  | 
2 | O=C(O)[C@H]1CNC[C@@H](O)[C@@H]1O [compound 11, glucuronic acid isofagomine] | 1.5 ± 0.3 µM | 0.022 ± 0.003 µM | 80 ± 20 µM | 0.6 ± 0.06 µM |  |  |  |  | 
3 | O=C(O)[C@H]1CNCC(O)(O)[C@H]1O [compound 8] | 137 ± 3 µM | 5.8 ± 0.5 µM | 27 ± 3 µM | 4 ± 2 µM |  |  |  |  | 
4 | CC(=O)N[C@H]1NC[C@H](C(=O)O)[C@H](O)[C@@H]1O [siastatin B, Siastatin B] |  |  |  |  | inhibited less | inhibited less | no contaminating peaks appeared | very minor additional peaks in the 3.2–3.0 range, with no loss in the starting peaks observed | 
5 | O=C(O)[C@H]1CNCC(O)(O)[C@@H]1O [compound 9] | 28 ± 1 µM |  | 200 ± 80 µM | 1.7 ± 0.2 µM |  |  |  |  | 0.52 ± 0.03 µM
